Data from ChEMBL document CHEMBL1201862, “PubChem BioAssay data set” (2004).
Activity calls are given as the source filed them.

Legend:
[1] = target: T1, Polyadenylate-binding protein 1 (Homo sapiens, UniProt P11940); assay: MLLE domain peptide-binding blockers, IC50 – biochemical, fluorescence polarization, FITC-PAM2 peptide, dose response (AID 602259); assay type: functional; conditions: read-out: IC50_Mean
[2] = target: T1, Polyadenylate-binding protein 1; assay: MLLE binding blockers, Cy5 peptide tracer – biochemical, fluorescence polarization, Cy5-PAM2 peptide, secondary, miRNA deadenylation inhibitor project, dose response (AID 602260); assay type: functional; conditions: read-out: IC50_Mean
[3] = target: T2, Ubiquitin-conjugating enzyme E2 N (Homo sapiens, UniProt P61088); assay type: functional;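 note: Dose-response confirmation in a TR-FRET assay detecting UBC13-driven polyubiquitin chain formation, inhibition measured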
T2 sequence (P61088 whole entry): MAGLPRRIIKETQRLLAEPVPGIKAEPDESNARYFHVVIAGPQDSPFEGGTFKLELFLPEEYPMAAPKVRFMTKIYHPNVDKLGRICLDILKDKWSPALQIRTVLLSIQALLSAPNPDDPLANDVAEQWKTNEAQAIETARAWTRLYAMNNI

Protein skinhead-1 = target: T3, Protein skinhead-1 (Caenorhabditis elegans, UniProt P34707); assay type: functional
T3 sequence (P34707 whole entry): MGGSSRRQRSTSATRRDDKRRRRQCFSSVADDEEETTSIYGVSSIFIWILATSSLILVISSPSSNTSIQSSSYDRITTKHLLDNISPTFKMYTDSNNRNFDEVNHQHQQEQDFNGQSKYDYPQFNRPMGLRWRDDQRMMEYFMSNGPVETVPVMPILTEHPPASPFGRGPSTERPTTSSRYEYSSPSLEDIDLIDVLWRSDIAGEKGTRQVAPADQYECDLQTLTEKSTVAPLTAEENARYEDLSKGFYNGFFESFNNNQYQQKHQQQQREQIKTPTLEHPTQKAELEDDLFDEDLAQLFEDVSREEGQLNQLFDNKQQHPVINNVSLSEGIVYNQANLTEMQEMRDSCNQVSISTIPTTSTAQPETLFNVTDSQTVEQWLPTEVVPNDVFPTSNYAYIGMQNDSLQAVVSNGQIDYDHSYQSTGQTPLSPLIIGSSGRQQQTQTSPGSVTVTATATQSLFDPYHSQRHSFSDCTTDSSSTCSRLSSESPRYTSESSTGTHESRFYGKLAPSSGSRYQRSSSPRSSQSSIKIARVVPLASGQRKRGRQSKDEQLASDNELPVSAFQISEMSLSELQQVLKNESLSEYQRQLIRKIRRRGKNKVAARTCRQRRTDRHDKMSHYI

[4] = target: T4, Corticotropin-releasing factor receptor 2/Corticotropin-releasing factor-binding protein (Homo sapiens, UniProt P24387+Q13324); assay: Dose Response confirmation of uHTS hits for small molecule antagonists of the CRF-binding protein and CRF-R2 receptor complex.; assay type: functional; conditions: read-out: IC50_Mean
T4 sequence (Q13324 whole entry): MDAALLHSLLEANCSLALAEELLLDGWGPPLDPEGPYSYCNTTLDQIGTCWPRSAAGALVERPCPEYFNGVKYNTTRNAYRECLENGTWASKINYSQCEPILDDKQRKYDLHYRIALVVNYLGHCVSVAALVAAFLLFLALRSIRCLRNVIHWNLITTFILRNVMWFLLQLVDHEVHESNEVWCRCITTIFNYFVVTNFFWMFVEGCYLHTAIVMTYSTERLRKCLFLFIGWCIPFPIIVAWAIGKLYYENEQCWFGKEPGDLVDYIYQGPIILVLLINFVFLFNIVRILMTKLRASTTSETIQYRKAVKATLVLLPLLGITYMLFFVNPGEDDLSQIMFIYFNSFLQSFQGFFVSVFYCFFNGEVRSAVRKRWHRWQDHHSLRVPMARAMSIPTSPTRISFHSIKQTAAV
T4 sequence (P24387 whole entry): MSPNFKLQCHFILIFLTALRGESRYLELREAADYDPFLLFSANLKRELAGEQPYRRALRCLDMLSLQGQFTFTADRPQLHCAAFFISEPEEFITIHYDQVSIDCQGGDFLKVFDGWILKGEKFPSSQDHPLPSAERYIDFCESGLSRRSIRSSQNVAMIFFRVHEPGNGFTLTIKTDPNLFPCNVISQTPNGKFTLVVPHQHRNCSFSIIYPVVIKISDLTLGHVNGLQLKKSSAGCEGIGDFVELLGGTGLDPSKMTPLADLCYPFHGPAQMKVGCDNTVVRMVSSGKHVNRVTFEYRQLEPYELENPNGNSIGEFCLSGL

[5] = target: T4, Corticotropin-releasing factor receptor 2/Corticotropin-releasing factor-binding protein; assay: activators of CRF receptor 2 with binding protein – uHTS hits, confirmation (AID 602473); assay type: functional; conditions: read-out: EC50_Mean
[6] = non-specific 3'UTR reporter inhibition in Clone20-Shn3RL – cell-based, Renilla luciferase, cherry-picked, counter-screen for Shn3 inhibitor project, dose response (AID 624133); assay type: functional
[7] = test system: Streptococcus sp. 'group A'; assay: Streptococcus pyogenes SK(-)GAS viability under kanamycin – luminescence, BacTiterGlo, confirmation, counter-screen for streptokinase expression inhibitor project, dose response (AID 1900); assay type: functional, organism-based
Streptococcus = assay: GAS UMAA2166 growth inhibition – luminescence, BacTiterGlo, counter-screen for streptokinase expression inhibitor project, dose response (AID 1915); assay type: functional, organism-based;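 note: potency for reduction of bacterial viability or growth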
[8] = Luminescence Cell-Based Dose Confirmation HTS to Identify Activators of 5'UTR Stem-Loop Driven Alpha-Synuclein mRNA Translation in H4 Neuroglioblastoma Cells. [Related pubchem assays: 1829 (Project Summary), 1814 (Primary HTS)]; assay type: functional
[9] = Luminescence Cell-Based Dose Response HTS to Identify Activators of Luciferase Translation or Activity in H4 […] Cells. [Related pubchem assays: 1829 (Project Summary), 1814 (Primary HTS)]; assay type: functional
[10] = target: FAD-linked sulfhydryl oxidase ALR (Homo sapiens, UniProt P55789); assay: ALR-catalysed DTT oxidation blockers – biochemical, H2O2 detection, luminescence, cherry-pick, dose response (AID 493248)
H4 = assay: Luminescence Cell-Based Dose Response HTS to Identify Activators of 5'UTR Stem-Loop Driven Prion Protein mRNA Translation in H4 Neuroglioblastoma Cells. [Related pubchem assays: 1829 (Project Summary), 1814 (Primary HTS)]; assay type: functional; conditions: Homo sapiens

T1 sequence (P11940 whole entry, the tested form may be a part): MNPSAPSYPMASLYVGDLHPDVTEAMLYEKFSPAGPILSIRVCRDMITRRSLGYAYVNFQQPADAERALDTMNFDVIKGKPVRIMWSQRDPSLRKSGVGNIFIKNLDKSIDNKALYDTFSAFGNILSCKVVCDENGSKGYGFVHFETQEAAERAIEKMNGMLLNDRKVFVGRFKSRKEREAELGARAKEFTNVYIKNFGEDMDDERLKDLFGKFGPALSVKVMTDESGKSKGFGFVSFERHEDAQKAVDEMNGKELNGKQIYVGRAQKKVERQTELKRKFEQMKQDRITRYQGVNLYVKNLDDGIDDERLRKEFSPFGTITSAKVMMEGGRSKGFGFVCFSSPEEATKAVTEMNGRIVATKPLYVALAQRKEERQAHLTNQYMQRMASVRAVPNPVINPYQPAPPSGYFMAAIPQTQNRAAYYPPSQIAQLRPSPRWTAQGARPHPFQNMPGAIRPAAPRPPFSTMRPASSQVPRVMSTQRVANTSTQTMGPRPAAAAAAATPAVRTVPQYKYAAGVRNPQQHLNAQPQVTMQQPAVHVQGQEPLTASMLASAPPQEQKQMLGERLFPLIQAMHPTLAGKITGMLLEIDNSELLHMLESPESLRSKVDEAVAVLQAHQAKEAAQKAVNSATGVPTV
Chain of FAD-linked sulfhydryl oxidase ALR (P55789 whole entry): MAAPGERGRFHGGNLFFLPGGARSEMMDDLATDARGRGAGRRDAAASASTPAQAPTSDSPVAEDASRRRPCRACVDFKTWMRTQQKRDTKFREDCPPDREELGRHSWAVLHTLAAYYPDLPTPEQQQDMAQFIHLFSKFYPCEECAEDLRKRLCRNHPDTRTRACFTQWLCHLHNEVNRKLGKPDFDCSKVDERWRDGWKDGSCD

With CCOC(=O)c1nc(Nc2ccc(C)cc2)c2ccccc2n1 the IC50 [1] was > 66 µM (inactive) and the IC50 [2] was > 66 µM (inactive).
With CCOC(=O)c1c(CN2CCN(c3ccccc3)CC2)oc2ccc(O)cc12 the IC50 [3] was > 20 µM (inactive).
In the case of O=C(O)c1ccc(Nc2ccc([N+](=O)[O-])c3nonc23)cc1, the IC50 (Protein skinhead-1) is reported as 48.5 µM (active).
In the case of COc1ccc(NC(=O)CSc2nnc(-c3ccccc3C)n2N)cc1, the IC50 [1] is reported as > 66 µM (inactive) and the IC50 [2] is reported as > 66 µM (inactive).
With CN(C(=O)CN1C(=O)/C(=C/c2ccccc2Cl)SC1=S)C1CCS(=O)(=O)C1 (stereo not given) the IC50 [4] was > 47.1 µM (inactive), the EC50 [5] was > 53 µM (inactive) and the IC50 [1] was > 66 µM (inactive). The IC50 [2] was > 66 µM (inactive).
With O=C(c1oc2ccccc2c1CSCc1ccccc1)N1CCN(c2ncccn2)CC1 the IC50 [1] was 38.5 µM (inactive) and the IC50 [2] was > 66 µM (inactive).
In the case of Cc1cc(C)n(N=C(S)NC2CCCC2)c(=O)c1C#N, the IC50 [1] is reported as > 66 µM (inactive) and the IC50 [2] is reported as > 66 µM (inactive).
In the case of Cn1ncc2c(NCCc3ccccc3)nc(Cl)nc21, the IC50 (Protein skinhead-1) is reported as > 100 µM (inactive).
With CC(=O)n1cc([C@H]2C=C(C(=O)Nc3ccccc3)O[C@@H](OCCCCO)C2)c2ccccc21 the IC50 [3] was > 20 µM (inactive).
For Cc1nn(C)c(C(=O)NC(=S)Nc2ccc([N+](=O)[O-])cc2)c1Cl, the IC50 [1] was > 66 µM (inactive) and the IC50 [2] was > 66 µM (inactive).
For Cc1cc(C)c(NC(=O)COC(=O)C2CCN(c3ccc(C(F)(F)F)cn3)CC2)c(Cl)c1, the IC50 (Protein skinhead-1) was > 100 µM (inactive).
With CC(Cc1cccs1)NC(=O)Nc1ccc(F)cc1 (stereo not given) the AC50 [6] was 28.8 µM (active).
For CC(C(=O)NC1C(=O)N2C(C(=O)O)=C(CSc3nnnn3C)CSC12)n1cc(Cl)cn1 (stereo not given), the EC50 [7] was 161 nM (active), the EC50 (Streptococcus) was 343 nM (active) and the IC50 [1] was > 66 µM (inactive). The IC50 [2] was > 66 µM (inactive).
In the case of Cc1ccc(NC(=S)NC(=O)C2CC2)c(C)c1, the IC50 (Protein skinhead-1) is reported as > 100 µM (inactive).
In the case of COc1cccc(C(=O)NC2=NCCS2)c1OC, the IC50 [1] is reported as > 66 µM (inactive) and the IC50 [2] is reported as > 66 µM (inactive).
With OCCNc1nc(Nc2cc(Cl)ccc2OC2CCCC2)nc(N2CCCC2)n1 the IC50 [3] was > 20 µM (inactive).
In the case of OCC(O)CN=C(S)NC1CCCCC1 (stereo not given), the IC50 [1] is reported as > 66 µM (inactive) and the IC50 [2] is reported as > 66 µM (inactive).
In the case of CC[C@@H](C)[C@@H]1CN([C@@H](CN2CCC[C@H]2CN2C(N)=NC[C@@H]2Cc2ccccc2)C(C)C)C(=N)N1CCCC1CCCC1, the IC50 [3] is reported as > 20 µM (inactive).
For c1ccc(-c2ccc(-c3ccncn3)cc2)cc1, the IC50 (Protein skinhead-1) was 15.2 µM (active).
With Cc1ccc(NC(=O)CSCC(=O)Nc2ccccc2C(=O)N2CCCCC2)cc1 the IC50 (Protein skinhead-1) was > 100 µM (inactive).
With CC(C)Oc1ccc(Cl)cc1Nc1nc(NCCO)nc(N2CCCC2)n1 the IC50 [3] was > 20 µM (inactive).
In the case of CCN(CC)c1ccc(/C=N/NC(=O)Nc2nonc2N)cc1, the EC50 [8] is reported as 98.8 µM (active), the EC50 [9] is reported as 7.18 µM (active) and the AC50 [10] is reported as 1.38 µM (active). The EC50 (H4) was 30.9 µM (active).
For CC(C)C[C@H](NC(=O)c1[nH]cnc1C(=O)N[C@@H](CCCCN)C(=O)OC(C)(C)C)C(=O)OC(C)(C)C, the IC50 [3] was > 20 µM (inactive).
In the case of CCOC(=O)N1CCN(C(=O)Nc2ccc(Cl)cc2)CC1, the IC50 (Protein skinhead-1) is reported as > 100 µM (inactive).
